ChEMBL document CHEMBL5465560, “Selectivity Literature for EUbOPEN Chemogenomic Library” (2024)

Columns and labels:
[1] = biological target: Ribosomal protein S6 kinase alpha-5 (Homo sapiens) (UniProt O75582); test: Selectivity interaction (KinomeScan (DiscoverX)) EUB0001079a RPS6KA5; settings: at 1 µM
[2] = biological target: Histone-lysine N-methyltransferase, H3 lysine-79 specific (Homo sapiens, UniProt Q8TEK3); test: Selectivity interaction (Methyltransferase screen (radiometric assays, panel of 8 PRMTs, 21 protein lysine methyltransferases, 3 DNA methyltransferases, and one RNA methyltransferase)) EUB0000272b DOT1L
[3] = biological target: Bromodomain-containing protein 7 (Homo sapiens) (UniProt Q9NPI1); test: Selectivity interaction (Bromodomain panel (DSF asssay)) EUB0000270b BRD7
[4] = biological target: Hepatocyte growth factor receptor (Homo sapiens, UniProt P08581); test: Selectivity interaction (Kinase counterscreening (biochemical assay)) EUB0000604a MET
[5] = biological target: T1, Mitogen-activated protein kinase kinase kinase 19 (Homo sapiens) (UniProt Q56UN5); test: Selectivity interaction (KinomeScan (DiscoverX)) EUB0001550a MAP3K19; settings: at 1 µM
T1 sequence (whole entry): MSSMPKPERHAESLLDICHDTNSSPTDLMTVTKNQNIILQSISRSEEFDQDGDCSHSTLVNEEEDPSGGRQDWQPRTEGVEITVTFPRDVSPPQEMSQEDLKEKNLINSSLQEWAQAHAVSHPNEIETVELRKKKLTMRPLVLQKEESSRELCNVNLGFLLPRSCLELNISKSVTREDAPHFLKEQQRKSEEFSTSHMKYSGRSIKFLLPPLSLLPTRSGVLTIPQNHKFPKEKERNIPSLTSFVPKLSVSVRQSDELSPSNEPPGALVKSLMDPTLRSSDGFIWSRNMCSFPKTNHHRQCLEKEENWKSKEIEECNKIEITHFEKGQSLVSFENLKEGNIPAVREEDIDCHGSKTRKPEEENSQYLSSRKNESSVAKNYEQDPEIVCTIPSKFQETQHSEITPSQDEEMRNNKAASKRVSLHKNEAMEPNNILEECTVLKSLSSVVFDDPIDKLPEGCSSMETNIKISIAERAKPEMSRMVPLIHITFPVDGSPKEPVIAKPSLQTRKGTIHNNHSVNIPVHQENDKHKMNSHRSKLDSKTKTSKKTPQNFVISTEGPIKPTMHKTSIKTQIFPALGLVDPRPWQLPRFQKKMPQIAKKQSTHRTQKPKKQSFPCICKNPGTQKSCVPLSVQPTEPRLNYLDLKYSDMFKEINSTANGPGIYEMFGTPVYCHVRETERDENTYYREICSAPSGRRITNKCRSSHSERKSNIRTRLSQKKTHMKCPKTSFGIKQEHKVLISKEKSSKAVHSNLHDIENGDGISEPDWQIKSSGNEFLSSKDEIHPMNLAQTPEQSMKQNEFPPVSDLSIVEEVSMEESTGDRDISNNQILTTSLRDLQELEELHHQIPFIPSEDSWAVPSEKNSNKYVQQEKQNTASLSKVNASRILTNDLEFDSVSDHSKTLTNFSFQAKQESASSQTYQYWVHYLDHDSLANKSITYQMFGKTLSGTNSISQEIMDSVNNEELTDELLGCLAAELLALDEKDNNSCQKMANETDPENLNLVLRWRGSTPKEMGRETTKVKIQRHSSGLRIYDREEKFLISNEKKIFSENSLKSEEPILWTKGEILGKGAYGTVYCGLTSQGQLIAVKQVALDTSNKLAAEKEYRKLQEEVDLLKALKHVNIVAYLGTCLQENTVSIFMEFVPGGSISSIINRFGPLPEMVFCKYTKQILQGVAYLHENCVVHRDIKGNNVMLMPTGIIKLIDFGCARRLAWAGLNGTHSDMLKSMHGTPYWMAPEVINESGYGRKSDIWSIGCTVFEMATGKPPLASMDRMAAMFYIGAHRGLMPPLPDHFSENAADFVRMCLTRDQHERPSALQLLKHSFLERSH

[6] = biological target: Serine/threonine-protein kinase pim-1 (Homo sapiens, UniProt P11309); test: Selectivity interaction (ProQinase) EUB0000171b PIM1
[7] = biological target: 5'-AMP-activated protein kinase catalytic subunit alpha-1 (Homo sapiens, UniProt Q13131); test: Selectivity interaction (Kinase panel (literature)) EUB0001199aCl PRKAA1; settings: at 1 µM
Mu-type opioid receptor = Mu-type opioid receptor (Homo sapiens, UniProt P35372); test: Selectivity interaction (Panel of kinases, GPCRs, ion channels and transporters (enzymatic assay)) EUB0000266bCl OPRM1
[8] = biological target: T2, cGMP-dependent protein kinase 1 (Homo sapiens) (UniProt Q13976); test: Selectivity interaction (KinomeScan (DiscoverX)) EUB0000655a PRKG1; settings: at 10 µM
T2 sequence (whole entry): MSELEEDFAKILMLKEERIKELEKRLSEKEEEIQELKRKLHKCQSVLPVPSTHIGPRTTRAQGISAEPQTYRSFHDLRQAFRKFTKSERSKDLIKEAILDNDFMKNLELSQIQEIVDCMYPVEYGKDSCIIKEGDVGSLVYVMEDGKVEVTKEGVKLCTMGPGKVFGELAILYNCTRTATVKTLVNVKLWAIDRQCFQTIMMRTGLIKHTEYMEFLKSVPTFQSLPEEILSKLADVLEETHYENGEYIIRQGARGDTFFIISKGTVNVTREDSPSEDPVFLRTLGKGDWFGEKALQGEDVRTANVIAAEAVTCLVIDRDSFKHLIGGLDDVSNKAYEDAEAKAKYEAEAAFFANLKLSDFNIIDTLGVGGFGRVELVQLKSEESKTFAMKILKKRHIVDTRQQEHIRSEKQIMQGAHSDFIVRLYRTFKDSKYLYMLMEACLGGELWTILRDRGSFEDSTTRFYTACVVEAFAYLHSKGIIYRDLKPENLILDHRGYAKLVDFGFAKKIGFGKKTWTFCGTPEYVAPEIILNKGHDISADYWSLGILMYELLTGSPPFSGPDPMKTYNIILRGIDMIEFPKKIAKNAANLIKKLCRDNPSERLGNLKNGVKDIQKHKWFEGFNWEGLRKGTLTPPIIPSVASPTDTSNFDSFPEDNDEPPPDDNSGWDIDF

[9] = biological target: Casein kinase I isoform gamma-2 (Homo sapiens) (UniProt P78368); test: Selectivity interaction (Ambit KINOMEscan and KiNATiv profiling in Jurkat cells) EUB0000090b CSNK1G2; type: cell-based; settings: at 1 µM

Chain of Histone-lysine N-methyltransferase, H3 lysine-79 specific (Q8TEK3 whole entry, looked up): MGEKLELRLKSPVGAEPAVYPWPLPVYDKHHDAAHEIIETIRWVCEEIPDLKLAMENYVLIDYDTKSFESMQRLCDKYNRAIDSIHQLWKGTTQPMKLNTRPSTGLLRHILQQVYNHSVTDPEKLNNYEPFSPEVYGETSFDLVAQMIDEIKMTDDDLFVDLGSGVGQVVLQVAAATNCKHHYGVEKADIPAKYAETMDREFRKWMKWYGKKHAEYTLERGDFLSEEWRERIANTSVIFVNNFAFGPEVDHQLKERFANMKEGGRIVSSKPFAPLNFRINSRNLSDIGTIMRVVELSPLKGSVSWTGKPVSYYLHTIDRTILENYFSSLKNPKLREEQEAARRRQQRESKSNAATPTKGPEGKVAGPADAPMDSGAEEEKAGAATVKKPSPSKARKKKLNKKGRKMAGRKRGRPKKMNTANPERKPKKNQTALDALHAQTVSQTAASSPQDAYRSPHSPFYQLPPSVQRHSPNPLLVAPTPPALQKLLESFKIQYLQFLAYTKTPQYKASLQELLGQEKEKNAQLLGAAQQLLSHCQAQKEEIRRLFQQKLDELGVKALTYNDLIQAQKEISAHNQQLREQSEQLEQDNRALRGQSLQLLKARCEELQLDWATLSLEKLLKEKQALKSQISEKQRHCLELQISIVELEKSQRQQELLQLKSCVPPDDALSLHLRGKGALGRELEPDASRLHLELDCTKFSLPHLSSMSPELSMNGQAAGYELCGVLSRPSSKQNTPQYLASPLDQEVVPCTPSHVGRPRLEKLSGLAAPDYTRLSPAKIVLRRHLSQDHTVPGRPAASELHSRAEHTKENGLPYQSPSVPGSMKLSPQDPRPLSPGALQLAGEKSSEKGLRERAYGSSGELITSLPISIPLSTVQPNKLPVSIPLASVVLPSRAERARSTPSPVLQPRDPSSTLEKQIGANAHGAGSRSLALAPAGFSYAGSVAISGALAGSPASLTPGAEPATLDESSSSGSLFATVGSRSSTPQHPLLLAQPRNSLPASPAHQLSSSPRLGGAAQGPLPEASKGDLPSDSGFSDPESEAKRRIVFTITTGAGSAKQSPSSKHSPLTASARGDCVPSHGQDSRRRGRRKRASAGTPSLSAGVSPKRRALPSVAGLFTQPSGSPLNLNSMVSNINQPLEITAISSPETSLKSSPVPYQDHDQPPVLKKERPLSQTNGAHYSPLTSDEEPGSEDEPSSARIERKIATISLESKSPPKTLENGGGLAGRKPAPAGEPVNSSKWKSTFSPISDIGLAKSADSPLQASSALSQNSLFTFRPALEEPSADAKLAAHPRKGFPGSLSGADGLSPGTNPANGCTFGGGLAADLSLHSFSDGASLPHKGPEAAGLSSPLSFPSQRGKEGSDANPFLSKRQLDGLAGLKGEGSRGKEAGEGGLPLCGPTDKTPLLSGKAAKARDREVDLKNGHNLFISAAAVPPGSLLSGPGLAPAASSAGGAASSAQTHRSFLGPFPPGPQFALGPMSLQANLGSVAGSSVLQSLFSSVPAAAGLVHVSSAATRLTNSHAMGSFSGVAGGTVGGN
Chain of Serine/threonine-protein kinase pim-1 (P11309 whole entry, looked up): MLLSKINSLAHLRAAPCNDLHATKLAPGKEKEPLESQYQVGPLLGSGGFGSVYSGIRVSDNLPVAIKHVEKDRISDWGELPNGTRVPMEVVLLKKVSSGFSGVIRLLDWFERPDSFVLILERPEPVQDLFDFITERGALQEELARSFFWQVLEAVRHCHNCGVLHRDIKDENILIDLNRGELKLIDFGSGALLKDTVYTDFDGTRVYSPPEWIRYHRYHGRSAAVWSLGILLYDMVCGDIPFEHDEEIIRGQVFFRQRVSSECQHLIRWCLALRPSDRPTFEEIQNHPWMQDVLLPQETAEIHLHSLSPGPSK
Chain of Mu-type opioid receptor (P35372 whole entry): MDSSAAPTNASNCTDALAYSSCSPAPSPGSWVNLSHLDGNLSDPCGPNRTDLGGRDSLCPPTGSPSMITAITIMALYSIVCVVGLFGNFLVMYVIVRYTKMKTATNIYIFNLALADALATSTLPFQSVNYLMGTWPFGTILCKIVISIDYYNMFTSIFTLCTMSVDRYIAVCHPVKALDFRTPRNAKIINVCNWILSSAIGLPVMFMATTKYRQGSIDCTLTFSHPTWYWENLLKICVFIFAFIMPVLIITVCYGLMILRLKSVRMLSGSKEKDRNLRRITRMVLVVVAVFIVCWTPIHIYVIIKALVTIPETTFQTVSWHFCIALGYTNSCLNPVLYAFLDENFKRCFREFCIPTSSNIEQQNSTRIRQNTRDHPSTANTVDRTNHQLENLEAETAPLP
Chain of Bromodomain-containing protein 7 (Homo sapiens) (Q9NPI1 whole entry): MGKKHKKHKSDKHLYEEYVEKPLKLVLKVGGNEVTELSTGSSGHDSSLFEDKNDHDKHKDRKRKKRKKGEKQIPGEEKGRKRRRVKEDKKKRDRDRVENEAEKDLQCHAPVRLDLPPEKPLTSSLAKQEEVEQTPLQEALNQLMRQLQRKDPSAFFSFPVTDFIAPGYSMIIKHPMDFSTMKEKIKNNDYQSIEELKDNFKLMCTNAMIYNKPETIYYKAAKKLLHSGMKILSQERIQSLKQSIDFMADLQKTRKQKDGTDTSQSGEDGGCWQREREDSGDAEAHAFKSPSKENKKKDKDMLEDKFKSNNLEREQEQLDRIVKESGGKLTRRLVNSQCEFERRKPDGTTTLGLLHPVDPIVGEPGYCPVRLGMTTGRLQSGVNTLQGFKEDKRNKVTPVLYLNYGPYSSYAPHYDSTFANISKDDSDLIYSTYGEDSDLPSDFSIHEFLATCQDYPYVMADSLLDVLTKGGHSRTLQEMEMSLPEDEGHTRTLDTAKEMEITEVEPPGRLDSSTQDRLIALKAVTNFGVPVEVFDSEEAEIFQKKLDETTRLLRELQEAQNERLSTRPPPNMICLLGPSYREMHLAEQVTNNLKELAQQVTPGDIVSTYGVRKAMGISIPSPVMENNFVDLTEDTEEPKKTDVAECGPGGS
Chain of 5'-AMP-activated protein kinase catalytic subunit alpha-1 (Q13131 whole entry, looked up): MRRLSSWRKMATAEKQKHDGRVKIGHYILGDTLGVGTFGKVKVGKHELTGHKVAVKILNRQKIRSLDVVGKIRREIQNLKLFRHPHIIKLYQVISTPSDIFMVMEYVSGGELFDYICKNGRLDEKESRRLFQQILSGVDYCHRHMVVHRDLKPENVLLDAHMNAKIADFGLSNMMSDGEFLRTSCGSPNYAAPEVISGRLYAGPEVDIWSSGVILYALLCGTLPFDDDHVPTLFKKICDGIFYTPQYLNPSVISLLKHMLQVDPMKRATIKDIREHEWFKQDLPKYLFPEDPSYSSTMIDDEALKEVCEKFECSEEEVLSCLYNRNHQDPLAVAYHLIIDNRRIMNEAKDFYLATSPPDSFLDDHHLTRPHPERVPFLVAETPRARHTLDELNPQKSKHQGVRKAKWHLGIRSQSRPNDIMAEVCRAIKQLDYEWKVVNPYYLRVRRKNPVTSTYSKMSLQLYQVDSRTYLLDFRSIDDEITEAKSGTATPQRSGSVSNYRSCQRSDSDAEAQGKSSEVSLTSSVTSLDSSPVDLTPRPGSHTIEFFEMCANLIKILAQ
Chain of Hepatocyte growth factor receptor (P08581 whole entry): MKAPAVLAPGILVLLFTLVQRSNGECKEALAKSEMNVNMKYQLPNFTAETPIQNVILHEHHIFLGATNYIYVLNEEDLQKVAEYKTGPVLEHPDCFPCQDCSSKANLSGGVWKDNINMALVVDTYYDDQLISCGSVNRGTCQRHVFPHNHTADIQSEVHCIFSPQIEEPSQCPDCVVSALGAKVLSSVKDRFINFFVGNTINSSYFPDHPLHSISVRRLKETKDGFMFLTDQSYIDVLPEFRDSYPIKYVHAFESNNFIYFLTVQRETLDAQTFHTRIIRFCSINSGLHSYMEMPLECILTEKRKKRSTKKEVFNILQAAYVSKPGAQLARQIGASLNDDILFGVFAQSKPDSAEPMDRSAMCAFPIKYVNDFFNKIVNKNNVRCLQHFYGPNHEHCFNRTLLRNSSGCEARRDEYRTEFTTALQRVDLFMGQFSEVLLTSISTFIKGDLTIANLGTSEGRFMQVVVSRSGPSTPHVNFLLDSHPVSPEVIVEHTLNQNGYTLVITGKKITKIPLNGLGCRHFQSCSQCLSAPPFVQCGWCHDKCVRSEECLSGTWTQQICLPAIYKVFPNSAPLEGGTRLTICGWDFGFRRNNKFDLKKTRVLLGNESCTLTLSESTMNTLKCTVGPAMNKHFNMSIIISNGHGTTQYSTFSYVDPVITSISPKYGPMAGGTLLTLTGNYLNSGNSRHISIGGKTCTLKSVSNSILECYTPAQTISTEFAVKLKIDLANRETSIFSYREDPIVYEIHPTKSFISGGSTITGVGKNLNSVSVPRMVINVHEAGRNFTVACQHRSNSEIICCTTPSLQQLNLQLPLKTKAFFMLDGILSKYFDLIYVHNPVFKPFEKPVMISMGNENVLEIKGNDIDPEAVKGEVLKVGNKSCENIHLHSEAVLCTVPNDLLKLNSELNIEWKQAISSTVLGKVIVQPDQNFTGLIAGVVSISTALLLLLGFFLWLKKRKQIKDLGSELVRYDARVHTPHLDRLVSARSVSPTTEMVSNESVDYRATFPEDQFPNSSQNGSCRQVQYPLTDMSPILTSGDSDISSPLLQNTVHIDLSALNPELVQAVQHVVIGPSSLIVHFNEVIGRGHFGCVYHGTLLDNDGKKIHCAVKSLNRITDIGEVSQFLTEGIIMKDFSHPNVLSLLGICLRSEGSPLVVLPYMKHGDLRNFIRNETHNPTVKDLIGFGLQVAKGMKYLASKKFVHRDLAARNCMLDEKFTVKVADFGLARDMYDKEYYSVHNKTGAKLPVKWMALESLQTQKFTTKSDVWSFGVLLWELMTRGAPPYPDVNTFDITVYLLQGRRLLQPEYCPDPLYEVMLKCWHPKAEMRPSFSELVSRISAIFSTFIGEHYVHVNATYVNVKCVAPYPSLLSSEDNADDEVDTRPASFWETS

Nc1cnc(N2CCc3cc(S(=O)(=O)Nc4c(F)cc(Cl)cc4F)cc(N4CCCC4=O)c32)nc1 [TP-020n] showed a % of control [1] of 100%.
With Cc1cc(C)cc([C@H]2c3cc(C)ccc3NC(=O)CN2C(=O)c2ccc(Br)s2)c1 the % of activity ([2]; at 1 µM) was 100% and the % of activity ([2]; at 10 µM) was 94.3%.
Cc1cc(CN)cc(C)c1-c1ncn(C)c1-c1cncn1C gave a dTM [3] of -1.08 K.
In the case of Cc1cnc(Nc2ccc(F)cc2Cl)nc1-c1c[nH]c(C(=O)N[C@H](CO)c2cccc(Cl)c2)c1, the Ki [4] is reported as > 4 µM.
CN(C)CC#Cc1ccc2[nH]c3c(c2c1)-c1nc(N)ncc1CCC3 was tested, and the % of control [5] was 9.9%.
Work on C=CC(=O)Nc1cccc(C(=O)Nc2ccc(Nc3cc(-c4[nH]c(SC)nc4C)ccn3)cc2)c1 yielded a % of control ([6]; at 1 µM) of 87% and a % of control ([6]; at 5 µM) of 67%.
CN1Cc2nccc(-c3cn(C)nc3-c3ccc(F)cc3)c2C1=O was tested, and the % of inhibition [7] was 3%.
CCn1c(-c2nc3cc(C(=O)N4CCCC(N)C4)ccc3n2C)cc2ccccc21 (configuration not stated) was tested, and the pXC50 (Mu-type opioid receptor) was < 4 M.
CN(C)CCOc1ccc(-c2nc(-c3ccncc3)c(-c3ccc4c(c3)CC/C4=N\O)[nH]2)cc1 was tested, and the % of control [8] was 89%.
CN(C)C/C=C/C(=O)Nc1ccc(C(=O)N2CCCC(Nc3ncc(Cl)c(-c4c[nH]c5ccccc45)n3)C2)cc1 (configuration not stated) gave a % of control [9] of 98%.
